Values joined by “and” are separate entries in the source; they are usually repeats but may differ in a detail not shown here. Identical values can stand only once. Toxic doses and inconclusive results are not listed.
System: BDF1 mice, B16 melanoma ip, median survival T/C
Test: NCI In Vivo Anticancer Drug Screen. Data for tumor model B16 Melanoma (intraperitoneal) in B6D2F1 (BDF1) mice
Conditions: endpoint: median survival time, higher = longer survival
Description: The antitumor activity of compounds was measured in mice bearing transplantable tumors. Survival or tumor size were measured and the results are expressed as the measurement made in the treated group (T) divided by the measurement made in the vehicle treated control group (C). The tumor model used in this assay is B16 Melanoma (intraperitoneal) in B6D2F1 (BDF1) mice

[1] = dose: 12.5 mg/kg/injection, schedule: Q01DX009 (ip), vehicle: saline with Tween-80
[2] = dose: 25.0 mg/kg/injection, schedule: Q01DX009 (ip), vehicle: saline with Tween-80
[3] = dose: 50.0 mg/kg/injection, schedule: Q01DX009 (ip), vehicle: saline with Tween-80
[4] = dose: 100.0 mg/kg/injection, schedule: Q01DX009 (ip), vehicle: saline with Tween-80
[5] = dose: 200.0 mg/kg/injection, schedule: Q01DX009 (ip), vehicle: saline with Tween-80
[6] = dose: 400.0 mg/kg/injection, schedule: Q01DX009 (ip), vehicle: saline with Tween-80
[7] = dose: 50.0 mg/kg/injection, schedule: Q01DX009 (ip), vehicle: Klucel (hydroxypropylcellulose) (HPC)
[8] = dose: 100.0 mg/kg/injection, schedule: Q01DX009 (ip), vehicle: Klucel (hydroxypropylcellulose) (HPC)
[9] = dose: 100.0 mg/kg/injection, schedule: Q04DX003 (ip), vehicle: Klucel (hydroxypropylcellulose) (HPC)
[10] = dose: 400.0 mg/kg/injection, schedule: Q04DX003 (ip), vehicle: Klucel (hydroxypropylcellulose) (HPC)
[11] = dose: 0.75 mg/kg/injection, schedule: Q01DX009 (ip), vehicle: saline with Tween-80
[12] = dose: 100.0 mg/kg/injection, schedule: Q04DX003 (ip), vehicle: saline with Tween-80
[13] = dose: 200.0 mg/kg/injection, schedule: Q04DX003 (ip), vehicle: saline with Tween-80
[14] = dose: 400.0 mg/kg/injection, schedule: Q04DX003 (ip), vehicle: saline with Tween-80
[15] = dose: 75.0 mg/kg/injection, schedule: Q01DX009 (ip), vehicle: Klucel (hydroxypropylcellulose) (HPC)
[16] = dose: 25.0 mg/kg/injection, schedule: Q01DX009 (ip), vehicle: Klucel (hydroxypropylcellulose) (HPC)

With `NC(=S)N/N=C/c1ccc(OC(=O)COc2ccccc2)cn1` the T/C [1] was 101 % of control and 110 % of control, the T/C [2] was 94 % of control and 104 % of control and 119 % of control and the T/C [3] was 103 % of control and 106 % of control and 117 % of control. The T/C [4] was 105 % of control, the T/C [5] was 105 % of control and the T/C [6] was 108 % of control.
With `O=C1/C(=N/O)CCc2ccccc21` the T/C [7] was 91 % of control and the T/C [8] was 100 % of control.
In the case of `CCc1ccccc1NC(=O)NC(C)C`, the T/C [9] is reported as 100 % of control, the T/C (dose: 200.0 mg/kg/injection, schedule: Q04DX003 (ip), vehicle: Klucel (hydroxypropylcellulose) (HPC)) is reported as 110 % of control and the T/C [10] is reported as 100 % of control.
With `O=S(=O)(O)SCCNCCCCCC1CCCCC1` the T/C [11] was 90 % of control, the T/C (dose: 1.5 mg/kg/injection, schedule: Q01DX009 (ip), vehicle: saline with Tween-80) was 95 % of control and the T/C (dose: 3.0 mg/kg/injection, schedule: Q01DX009 (ip), vehicle: saline with Tween-80) was 93 % of control. For the same molecule, the T/C (dose: 6.0 mg/kg/injection, schedule: Q01DX009 (ip), vehicle: saline with Tween-80) was 104 % of control and the T/C (dose: 12.0 mg/kg/injection, schedule: Q01DX009 (ip), vehicle: saline with Tween-80) was 100 % of control.
With `CCCC[S][Sn]([CH2]CCC)([CH2]CCC)[S]CCCC` the T/C (dose: 0.19 mg/kg/injection, schedule: Q01DX009 (ip), vehicle: saline with Tween-80) was 98 % of control, the T/C (dose: 0.38 mg/kg/injection, schedule: Q01DX009 (ip), vehicle: saline with Tween-80) was 98 % of control and the T/C [11] was 99 % of control.
In the case of `CC(O)C(O)C=O` (stereo unspecified), the T/C (dose: 248.0 mg/kg/injection, schedule: Q01DX009 (ip), vehicle: saline) is reported as 108 % of control, the T/C (dose: 346.0 mg/kg/injection, schedule: Q01DX009 (ip), vehicle: saline) is reported as 97 % of control and the T/C (dose: 576.0 mg/kg/injection, schedule: Q01DX009 (ip), vehicle: saline) is reported as 104 % of control.
With `CC1c2cccc(Cl)c2C(=O)c2c(Cl)cccc21` the T/C [8] was 102 % of control, the T/C (dose: 200.0 mg/kg/injection, schedule: Q01DX009 (ip), vehicle: Klucel (hydroxypropylcellulose) (HPC)) was 100 % of control and the T/C (dose: 400.0 mg/kg/injection, schedule: Q01DX009 (ip), vehicle: Klucel (hydroxypropylcellulose) (HPC)) was 102 % of control.
`COc1ccc2c(c1)C(=O)CC=C(C(=O)O)N2` was tested, and the T/C (dose: 100.0 mg/kg/injection, schedule: Q01DX009 (ip), vehicle: saline) was 100 % of control, the T/C [12] was 88 % of control and the T/C (dose: 200.0 mg/kg/injection, schedule: Q01DX009 (ip), vehicle: saline) was 96 % of control. For the same molecule, the T/C [13] was 93 % of control, the T/C (dose: 400.0 mg/kg/injection, schedule: Q01DX009 (ip), vehicle: saline) was 98 % of control and the T/C [14] was 95 % of control.
`COc1ccc(Cl)cc1NC(=O)C(Br)C(Br)C(=O)O` (stereo unspecified) was tested, and the T/C [1] was 102 % of control, the T/C [2] was 105 % of control and the T/C [3] was 95 % of control. The T/C [4] was 89 % of control and the T/C [5] was 91 % of control.
For `Nc1ncnc2c(C3OC(CO)C(O)C3O)[nH]nc12` (stereo unspecified), the T/C (dose: 1.0 mg/kg/injection, schedule: Q01DX009 (ip), vehicle: saline) was 113 % of control, the T/C (dose: 2.0 mg/kg/injection, schedule: Q01DX009 (ip), vehicle: saline) was 122 % of control and the T/C (dose: 4.0 mg/kg/injection, schedule: Q01DX009 (ip), vehicle: saline) was 122 % of control. For the same molecule, the T/C (dose: 8.0 mg/kg/injection, schedule: Q01DX009 (ip), vehicle: saline) was 107 % of control.
With `O=Cc1ccc(C(=O)O)cc1` the T/C [12] was 93 % of control, the T/C [13] was 93 % of control and the T/C [14] was 86 % of control.
With `CO[C@@]12[C@@H]3N[C@@H]3CN1C1=C(C(=O)C(NCc3ccco3)=C(C)C1=O)[C@@H]2COC(N)=O` the T/C (dose: 0.13 mg/kg/injection, schedule: Q01DX001 (ip), vehicle: distilled water + Tween-80) was 96 % of control, the T/C (dose: 0.25 mg/kg/injection, schedule: Q01DX001 (ip), vehicle: distilled water + Tween-80) was 101 % of control and the T/C (dose: 0.5 mg/kg/injection, schedule: Q01DX001 (ip), vehicle: distilled water + Tween-80) was 111 % of control. For the same molecule, the T/C (dose: 1.0 mg/kg/injection, schedule: Q01DX001 (ip), vehicle: distilled water + Tween-80) was 123 % of control, the T/C (dose: 6.0 mg/kg/injection, schedule: Q04DX003 (ip), vehicle: distilled water + Tween-80) was 205 % of control and the T/C (dose: 12.0 mg/kg/injection, schedule: Q04DX003 (ip), vehicle: distilled water + Tween-80) was 305 % of control. The T/C (dose: 24.0 mg/kg/injection, schedule: Q04DX003 (ip), vehicle: distilled water + Tween-80) was 315 % of control.
With `CCC(C)Sc1nc(N)nc2c1ncn2C1OC(CO)C(O)C1O` (stereo unspecified) the T/C (dose: 37.5 mg/kg/injection, schedule: Q01DX009 (ip), vehicle: Klucel (hydroxypropylcellulose) (HPC)) was 113 % of control, the T/C [15] was 99 % of control and the T/C (dose: 150.0 mg/kg/injection, schedule: Q01DX009 (ip), vehicle: Klucel (hydroxypropylcellulose) (HPC)) was 89 % of control.
In the case of `Oc1ccc2ccccc2c1N=Nc1ccc(Cl)cc1`, the T/C [6] is reported as 90 % of control.
In the case of `COc1ccc(NC(=O)Nc2cc(Cl)ccc2OC)cc1`, the T/C [16] is reported as 92 % of control and the T/C [7] is reported as 92 % of control.
For `O=C1CSC2=NCCN12`, the T/C (dose: 50.0 mg/kg/injection, schedule: Q01DX009 (ip), vehicle: suspension in saline) was 99 % of control, the T/C (dose: 100.0 mg/kg/injection, schedule: Q01DX009 (ip), vehicle: suspension in saline) was 113 % of control and the T/C (dose: 200.0 mg/kg/injection, schedule: Q01DX009 (ip), vehicle: suspension in saline) was 111 % of control.
With `C=C(C)C1CCC2(C=O)CCC3(C)C(CCC4C5(C)CCC(O)C(C)(C)C5CCC43C)C12` (stereo unspecified) the T/C (dose: 18.75 mg/kg/injection, schedule: Q01DX009 (ip), vehicle: Klucel (hydroxypropylcellulose) (HPC)) was 94 % of control and the T/C [15] was 97 % of control.
With `Cc1ccc2c(c1)n([O-])c1cc(Cl)ccc1[n+]2=O` the T/C [1] was 115 % of control and the T/C [4] was 122 % of control.
With `CC(=O)Oc1ccccc1C(=O)O` the T/C (dose: 15.7 mg/kg/injection, schedule: Q01DX009 (ip), vehicle: saline with Tween-80) was 86 % of control, the T/C (dose: 31.3 mg/kg/injection, schedule: Q01DX009 (ip), vehicle: saline with Tween-80) was 102 % of control and the T/C (dose: 62.5 mg/kg/injection, schedule: Q01DX009 (ip), vehicle: saline with Tween-80) was 97 % of control.
For `Cc1ccc(NC(=S)NN)cc1C`, the T/C [16] was 100 % of control, the T/C [7] was 96 % of control and the T/C [8] was 96 % of control.
For `CC(c1ccccc1)N1C(=O)CSC1=S` (stereo unspecified), the T/C [2] was 100 % of control, the T/C [3] was 94 % of control and the T/C [4] was 103 % of control. For the same molecule, the T/C [5] was 101 % of control.
With `CNC(c1ccncc1)C(NC)c1ccncc1` (stereo unspecified) the T/C [9] was 95 % of control and the T/C [10] was 91 % of control.
In the case of `CN(/N=N/c1nc[nH]c1C(N)=O)C1CCCCC1`, the T/C (dose: 50.0 mg/kg/injection, schedule: Q01DX009 (ip), vehicle: carboxymethylcellulose (CMC)) is reported as 123 % of control.
For `CC1(C)CC1(Br)Br`, the T/C (dose: 6.25 mg/kg/injection, schedule: Q01DX009 (ip), vehicle: saline with Tween-80) was 112 % of control, the T/C [1] was 110 % of control and the T/C [2] was 118 % of control. For the same molecule, the T/C [3] was 102 % of control and the T/C [4] was 110 % of control.
With `O=CN(O)CC(=O)O.[Zn]` the T/C (dose: 5.0 mg/kg/injection, schedule: Q01DX009 (ip), vehicle: saline) was 99 % of control, the T/C (dose: 10.0 mg/kg/injection, schedule: Q01DX009 (ip), vehicle: saline) was 98 % of control and the T/C (dose: 20.0 mg/kg/injection, schedule: Q01DX009 (ip), vehicle: saline) was 88 % of control.
For `O=C(O)CSc1nc(-c2ccccc2)c(-c2ccccc2)n1-c1ccccn1`, the T/C (dose: 12.5 mg/kg/injection, schedule: Q01DX009 (ip), vehicle: water) was 98 % of control, the T/C (dose: 25.0 mg/kg/injection, schedule: Q01DX009 (ip), vehicle: water) was 97 % of control and the T/C (dose: 50.0 mg/kg/injection, schedule: Q01DX009 (ip), vehicle: water) was 98 % of control. For the same molecule, the T/C (dose: 100.0 mg/kg/injection, schedule: Q01DX009 (ip), vehicle: water) was 98 % of control.
`O=C(COc1ccc(Cl)cc1)Nc1ccc(Cl)cc1` was tested, and the T/C [2] was 90 % of control, the T/C [3] was 92 % of control and the T/C [4] was 92 % of control.

Source: PubChem BioAssay AID192 (DTP/NCI, 2004)
